# How the values were obtained:
# [1] = test system: tremogenic effect of oxotremorine; assay: Potentiation of the cholinergic effects of oxotremorine: tremogenic (central) effect; format: in vivo, male NMRI mice; conditions: mice
# Method: (§1) 1. Potentiation of the cholinergic effects of oxotremorine. […] The degree of peripheral cholinergic activation is measured by the salivatory effect quantified by the following rating system:
# The degree of central cholinergic activation is measured by the tremogenic effect quantified by the following rating system:
# score 1: slight and periodic occasional tremors;
# score 2: moderate and slight tremors often repeated;
# score 4: accentuated tremors, but interrupted by periods of calm:
# score 6: very accentuated and almost continuous tremors.
# (§2) Male NMRI mice (20 to 25 g) are divided into four groups of five animals, that is to say: one control group and three treated groups. The compound to be tested is administered intraperitoneally (to the three treated groups) 20 minutes before the administration of the oxotremorine, at a dose which differs for each of the treated groups. […] For each of the groups, the individual scores recorded at each observation period are summed; this enables to plot a curve showing the sum of the scores as a function of time, which is characteristic for each group.
# (§3) The mean values of the areas under the curves obtained for each of the treated groups are compared with the mean value of the area under the curve corresponding to the control group and is subjected to statistical analysis by the Mann-Whitney method. From this comparison, a "minimum active dose" can be determined. […]
# [2] = test system: salivatory effect of oxotremorine; assay: Potentiation of the cholinergic effects of oxotremorine: salivatory (peripheral) effect; format: in vivo, male NMRI mice; conditions: mice
# Method: as §1
# score 1: a little saliva is found around the teeth:
# score 2: the saliva forms a narrower band around the mouth;
# score 4: the saliva wets a surface underneath the chin;
# score 6: the saliva runs from the mouth, for example onto the forelegs.
# The intermediate scores are not used, and the saliva is wiped away after each observation.
# as §2, §3
# [3] = test system: hyperactivity induced by scopolamine; assay: Inhibition of hyperactivity induced by scopolamine; format: in vivo, male Sprague-Dawley rats; conditions: rats, administered more than 15 minutes before the measurements
# [4] = test system: effects of scopolamine on the band from 6.4 to 9.6 Hz in the EEG; assay: Inhibition of the effects of scopolamine on the electroencephalogram (EEG); format: in vivo, male albino Sprague-Dawley rats; design: inhibition: dose or concentration left out as unconfirmed
# Method: Male albino Sprague-Dawley SPF rats (160 to 200 g) are used in this test. When the animals are 3 months old, 5 cortical electrodes are implanted permanently, aseptically and under a general anesthesia: one inert electrode, one left and one right frontal electrode, and one left and one right occipital electrode (P. ETEVENON, loc.cit.). The test is carried out when the animals are about 15 months old. In the meantime, the animals are kept in individual cages. They are given water and food ad libitum and are subjected to a regular daily cycle comprising a period of darkness between 6 o'clock in the evening and 6 o'clock in the morning. At the same time, the animals are progressively acclimatized to the cages of the sound-proof cabin which they will subsequently occupy for recording of the electroencephalograms, as well as to the experimental conditions, by intraperitoneal administration of placebo. The products are administered immediately before the EEG is recorded. The rats are divided into groups of 8 animals and 16 samples of the EEG spectra are recorded over 5 seconds (two EEG spectra per animal). The spectra obtained are then analyzed by computer (rapid Fourier transform), which enables the average of the 16 measurements performed to be determined for each group and the overall intensity of the EEG spectrum and the distribution of this intensity (in %) in the various frequency bands to be deduced for each animal. This operation (recording of the spectra) is repeated 9 times (total
# [5] = test system: amnesia induced by scopolamine; assay: Multiple-trial passive avoidance: mnemic retention, amnesia induced by scopolamine; format: in vivo, male Sprague-Dawley rats; conditions: rats
# Method: 4. Multiple-trial passive avoidance. The compounds of the present invention have been studied with the aim of
# Columns 3 and 4 show the results obtained in the test used to evaluate the learning. The figures indicate the average number of trials needed for a control animal (group 1) or an animal treated (group 2) with the compound to learn to remain on the rubber mat for 180 seconds in order to avoid the electric shock. The results were analyzed by the Student test.
# [6] = 20 minutes after administration at the minimum active dose
smiles,measurement,setting,value
"COC(=O)C1=CCCN(C)C1 [arecoline, methyl 1,2,5,6-tetrahydro-1-methyl-3-pyridinecarboxylate]",potentiation of the tremogenic effect of oxotremorine 20 minutes after administration,[1]; [6],gives no potentiation
same,potentiation of the salivatory effect of oxotremorine 20 minutes after administration,[2]; [6],gives no potentiation
O=C1CCCN1CC#CCN1CCCC1 [oxotremorine],minimal effective dose,"[1]; Mus musculus, ip, intraperitoneal, read-out: minimum dose of oxotremorine which causes tremors",~0.05 mg/kg
same,minimal effective dose,"[2]; Mus musculus, ip, intraperitoneal, read-out: minimum dose of oxotremorine which causes salivation",~0.05 mg/kg
"CNC(=O)Oc1ccc2c(c1)[C@]1(C)CCN(C)[C@@H]1N2C [physostigmine, reference compound]","inhibitory activity on scopolamine hyperactivity, administered more than 15 minutes before measurements",[3],inactive
same,inhibition,"[4]; Rattus norvegicus, ip, read-out: Inhibition (percentage of reduction in the increase in the intensity of the band from 6.4 to 9.6 Hz)",76.8%
same,inhibition of the effects which scopolamine exerts on the electroencephalogram,"[4]; rats, i.p.",inhibit the effects which scopolamine exerts on the electroencephalogram
same,influence on the amnesing effect of scopolamine,"[5]; i.p., group 4 vs. group 3","favorable action against the amnesing effect of scopolamine, similar to that of the compounds of the invention"
CN1[C@@H]2C[C@@H](OC(=O)[C@H](CO)c3ccccc3)C[C@H]1[C@@H]1O[C@@H]12 [scopolamine],amnesing effect,"[5]; group 3, scopolamine alone",very pronounced

# Source: US4956367A, “2-amino-4-morpholino-6-propyl-1,3,5-triazines” (U C B S.A., priority 1988, dated 1990)
